The assay concerns the target T1, Human eIF4E (Homo sapiens, UniProt P06730).
T1 construct: Human eIF4E (aa 28-217) with a C-terminal His-tag; made in house
In words: Human eIF4E/4G2 binding assay (TR-FRET). Particulars: eIF4E (aa 28-217) with biotin labeled 4G2 peptide. The protocol:
Human eIF4E (aa 28-217) with a C-terminal His-tag was expressed in E. coli in inclusion bodies. The protein was solubilized with 8 M urea and purified under denaturing conditions using nickel-charged HisTrap HP columns (GE Healthcare). The purified protein was then refolded by diluting in 20 mM Hepes pH 7.0, 0.5 M NaCl, 1 mM DTT, 1 mM EDTA, 0.5 M arginine plus 6 M urea, and then dialyzing overnight into the same buffer without the urea. The protein was further dialyzed into 20 mM Hepes, pH 6.5, 50 mM NaCl, 1 mM EDTA, 1 mM DTT, and concentrated using Hitrap SP sepharose FF columns (GE Healthcare). The concentrated protein was dialyzed into 20 mM Hepes, pH 7.0, 0.5M NaCl, 5 mM DTT and 10% glycerol, and stored at −80° C. until use.
Test compounds (3.43 mM stock in DMSO) were diluted 2-fold in series in DMSO (10 concentration points). Compound solutions (1.2 μl/well) were added into black 384-well polypropylene microplates (Matrix, Thermal Scientific). Twenty-two microliters per well of Assay Buffer (50 mM NaPi, pH 6.5, 50 mM KCl, 1 mM DTT and 0.5 mg/ml gamma globulin) and eight microliters per well of 82.5 nM purified eIF4E in Assay Buffer were added. The samples were incubated at room temperature (20-23° C.) for 15 min. Biotin labeled 4G2 peptide (Ac-Lys-Gln-Tyr-Asp-Arg-Glu-Phe-Leu-Leu-Asp-Phe-Gln-Phe-Met-Pro-Lys(Aha-Bio)-NH2, 1.75 μM stock in DMSO) was diluted to 0.14 μM in Assay Buffer (without DTT) and 5 μl/well was added. The samples were incubated at room temperature for 15 min. Five microliters per well of 6.4 nM Eu-streptavidin (Eu-SA, Perkin Elmer) and 80 nM Allophycocyanin (APC)-anti His antibody (Columbia Biosciences) in Assay Buffer (without DTT) were then added and the samples were incubated at room temperature for 20 min.
Assay signals were monitored by reading excitation at 340 nm and emission fluorescence at 615 nm and 665 nm on an Envision reader (Perkin Elmer). Normalized TR-FRET (time-resolved fluorescence resonance energy transfer) assay signal (Rn) was calculated by the formula: Rn═[(A−Ba−C×D)/(D−Bd)]×(Dc−Bd) • Where A is the fluorescence intensity of the sample at 665 nm, • D is the fluorescence intensity of the sample at 615 nm, • Ba and Bd are plate backgrounds at 665 nm and 615 nm, respectively, • Dc is the fluorescence intensity of 0.78 nM Eu-SA in the assay buffer at 615 nm • The cross-talk factor (C) is determined by the following formula: C=(Ac−Ba)/(Dc−Bd) • Where Ac is the fluorescence intensity of 0.78 nM Eu-SA in the assay buffer at 665 nm.
IC50 values were calculated using xLFit program (IDBS).
T1 sequence (P06730 28-217): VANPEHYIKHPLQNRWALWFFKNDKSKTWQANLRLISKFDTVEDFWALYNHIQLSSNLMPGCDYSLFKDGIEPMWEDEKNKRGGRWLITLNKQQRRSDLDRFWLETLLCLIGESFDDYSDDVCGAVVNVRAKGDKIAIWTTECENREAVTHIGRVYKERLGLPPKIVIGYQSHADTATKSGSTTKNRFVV
`O=C(O)CC1CCCN1c1nc(-c2ccc(-c3ccc(F)cc3)cc2)c(-c2ccccc2)s1` (stereo not shown) [Compound I-111] had a 50% inhibitory concentration (IC50) of less than 5 µM. As to `O=C(O)CC1CCCN1c1nc(-c2ccc(-c3ccc(F)cc3)nc2)c(-c2cncnc2)s1` (stereo not shown) [Compound I-112], the IC50 was greater than 25 µM.

The molecule `O=C(O)CC1CCCN1c1nc(-c2ccc(-c3ccc(F)cc3)cc2)c(-c2cccnc2)s1` (stereo not shown) [Compound I-113] registered an IC50 greater than 25 µM.

The molecule `O=C(O)CC1CCCN1c1nc(-c2ccc(-c3ccc(F)cc3)cc2)c(-c2cccc3[nH]ccc23)s1` (stereo not shown) [Compound I-114] came in with an IC50 of less than 5 µM. `O=C(O)C1CCN(c2nc(-c3ccc(-c4ccc(F)cc4)cc3)cs2)C1` (stereo not shown) [Compound I-115] came in with an IC50 greater than 25 µM.

Molecule `O=C(O)C1CCN(c2nc(-c3ccc(-c4ccc(F)cc4)cc3)c(-c3ccccc3)s2)C1` (stereo not shown) [Compound I-116] registered a half-inhibitory concentration (IC50) of less than 5 µM.

Molecule `O=C(O)C1CCN(c2nc(-c3ccc(-c4ccc(F)cc4)cc3)c(-c3cncnc3)s2)C1` (stereo not shown) [Compound I-117] gave an IC50 greater than 25 µM. The molecule `O=C(O)C1CCN(c2nc(-c3ccc(-c4ccc(F)cc4)cc3)c(-c3cccnc3)s2)C1` (stereo not shown) [Compound I-118] came in with an IC50 greater than 25 µM. For `O=C(O)C1CCN(c2nc(-c3ccc(-c4ccc(F)cc4)cc3)c(-c3cccc4[nH]ccc34)s2)C1` (stereo not shown) [Compound I-119], the IC50 is 5 to 25 µM. In the case of `O=C(O)C1(CNc2nc(-c3ccc(-c4ccc(F)cc4)cc3)cs2)CC1` [Compound I-120], the IC50 was greater than 25 µM. With `O=C(O)C1(CNc2nc(-c3ccc(-c4ccc(F)cc4)cc3)c(Br)s2)CC1` [Compound I-121] the figure was 5 to 25 µM; with `O=C(O)C1(CNc2nc(-c3ccc(-c4ccc(F)cc4)cc3)c(-c3ccccc3)s2)CC1` [Compound I-122], less than 5 µM. `O=C(O)C1(CNc2nc(-c3ccc(-c4ccc(F)cc4)cc3)c(-c3cncnc3)s2)CC1` [Compound I-123] registered an IC50 greater than 25 µM. With `O=C(O)C1(CNc2nc(-c3ccc(-c4ccc(F)cc4)cc3)c(-c3cccnc3)s2)CC1` [Compound I-124] the figure was greater than 25 µM; with `O=C(O)C1(CNc2nc(-c3ccc(-c4ccc(F)cc4)cc3)c(-c3cccc4[nH]ccc34)s2)CC1` [Compound I-125], less than 5 µM; with `O=C(O)C1CC(CNc2nc(-c3ccc(-c4ccc(F)cc4)cc3)cs2)C1` (stereo not shown) [Compound I-126], greater than 25 µM. `O=C(O)C1CC(CNc2nc(-c3ccc(-c4ccc(F)cc4)cc3)c(Br)s2)C1` (stereo not shown) [Compound I-127] had an IC50 of 5 to 25 µM.

`O=C(O)C1CC(CNc2nc(-c3ccc(-c4ccc(F)cc4)cc3)c(-c3ccccc3)s2)C1` (stereo not shown) [Compound I-128] showed an IC50 of less than 5 µM. `O=C(O)C1CC(CNc2nc(-c3ccc(-c4ccc(F)cc4)cc3)c(-c3cncnc3)s2)C1` (stereo not shown) [Compound I-129]: the IC50 was greater than 25 µM.

The molecule `O=C(O)C1CC(CNc2nc(-c3ccc(-c4ccc(F)cc4)cc3)c(-c3cccnc3)s2)C1` (stereo not shown) [Compound I-130] showed an IC50 greater than 25 µM. `O=C(O)C1CC(CNc2nc(-c3ccc(-c4ccc(F)cc4)cc3)c(-c3cccc4[nH]ccc34)s2)C1` (stereo not shown) [Compound I-131] yielded an IC50 of 5 to 25 µM. For `O=C(O)C1CCN(c2nc(-c3ccc(-c4ccc(F)cc4)cc3)c(-c3ccccc3)s2)CC1` [Compound I-136], the IC50 is less than 5 µM. `O=C(O)C1CCN(c2nc(-c3ccc(-c4ccc(F)cc4)cc3)c(-c3cncnc3)s2)CC1` [Compound I-137]: the IC50 is greater than 25 µM. Consider `O=C(O)C1CCN(c2nc(-c3ccc(-c4ccc(F)cc4)cc3)c(-c3cccnc3)s2)CC1` [Compound I-138], for which the IC50 lay in the range of 5 to 25 µM. Consider `O=C(O)C1CCN(c2nc(-c3ccc(-c4ccc(F)cc4)cc3)c(-c3cccc4[nH]ccc34)s2)CC1` [Compound I-139], for which the IC50 lay within 5 to 25 µM.

`O=C(O)C1CN(c2nc(-c3ccc(-c4ccc(F)cc4)cc3)c(-c3ccccc3)s2)CCO1` (stereo not shown) [Compound I-140] came in with an IC50 of less than 5 µM.

Turning to `O=C(O)C1CN(c2nc(-c3ccc(-c4ccc(F)cc4)cc3)c(-c3cncnc3)s2)CCO1` (stereo not shown) [Compound I-141], the IC50 was greater than 25 µM. `O=C(O)C1CN(c2nc(-c3ccc(-c4ccc(F)cc4)cc3)c(-c3cccnc3)s2)CCO1` (stereo not shown) [Compound I-142] returned an IC50 greater than 25 µM. On to `O=C(O)C1CN(c2nc(-c3ccc(-c4ccc(F)cc4)cc3)c(-c3cccc4[nH]ccc34)s2)CCO1` (stereo not shown) [Compound I-143], for which the IC50 was less than 5 µM. As to `CC1(C(=O)O)CCCN(c2nc(-c3ccc(-c4ccc(F)cc4)cc3)c(-c3ccccc3)s2)C1` (stereo not shown) [Compound I-144], the IC50 is less than 5 µM. Regarding `CC1(C(=O)O)CCCN(c2nc(-c3ccc(-c4ccc(F)cc4)cc3)c(-c3cncnc3)s2)C1` (stereo not shown) [Compound I-145], the IC50 was greater than 25 µM.

Turning to `CC1(C(=O)O)CCCN(c2nc(-c3ccc(-c4ccc(F)cc4)cc3)c(-c3cccnc3)s2)C1` (stereo not shown) [Compound I-146], the IC50 was 5 to 25 µM. Take `CC1(C(=O)O)CCCN(c2nc(-c3ccc(-c4ccc(F)cc4)cc3)c(-c3cccc4[nH]ccc34)s2)C1` (stereo not shown) [Compound I-147]: the IC50 was less than 5 µM.

As for `CC(C)C(CC(=O)O)Nc1nc(-c2ccc(Oc3ccccc3)cc2)cs1` (stereo not shown) [Compound I-148], the IC50 was greater than 25 µM. `CC(C)C(CC(=O)O)Nc1nc(-c2ccc(Oc3ccccc3)cc2)c(-c2ccccc2)s1` (stereo not shown) [Compound I-149]: the concentration for half-maximal inhibition (IC50) lay within 5 to 25 µM. Turning to `CC(C)(CC(=O)O)Nc1nc(-c2ccc(Oc3ccccc3)cc2)c(-c2cncnc2)s1` [Compound I-150], the half-inhibitory concentration (IC50) is greater than 25 µM. Take `CC(C)C(CC(=O)O)Nc1nc(-c2ccc(Oc3ccccc3)cc2)c(-c2cccnc2)s1` (stereo not shown) [Compound I-151]: the half-maximal inhibitory concentration (IC50) is greater than 25 µM. The molecule `CC(C)C(CC(=O)O)Nc1nc(-c2ccc(Oc3ccccc3)cc2)c(-c2cccc3[nH]ccc23)s1` (stereo not shown) [Compound I-152] yielded an IC50 of 5 to 25 µM. `CC(C)(CNc1nc(-c2ccc(Oc3ccccc3)cc2)cs1)C(=O)O` [Compound I-153] displayed an IC50 greater than 25 µM. Take `CC(C)(CNc1nc(-c2ccc(Oc3ccccc3)cc2)c(-c2ccccc2)s1)C(=O)O` [Compound I-154]: the IC50 was less than 5 µM. Consider `CC(C)(CNc1nc(-c2ccc(Oc3ccccc3)cc2)c(-c2cncnc2)s1)C(=O)O` [Compound I-155], for which the IC50 was greater than 25 µM. As for `CC(C)(CNc1nc(-c2ccc(Oc3ccccc3)cc2)c(-c2cccnc2)s1)C(=O)O` [Compound I-156], the figure is greater than 25 µM. With `CC(C)(CNc1nc(-c2ccc(Oc3ccccc3)cc2)c(-c2cccc3[nH]ccc23)s1)C(=O)O` [Compound I-157] the figure was 5 to 25 µM. For the molecule `O=C(O)C1CN(c2nc(-c3ccc(Oc4ccccc4)cc3)c(-c3ccccc3)s2)C1` [Compound I-158], the IC50 was less than 5 µM.

For the molecule `O=C(O)C1CN(c2nc(-c3ccc(Oc4ccccc4)cc3)c(-c3cncnc3)s2)C1` [Compound I-159], the IC50 is greater than 25 µM. With `O=C(O)C1CN(c2nc(-c3ccc(Oc4ccccc4)cc3)c(-c3cccnc3)s2)C1` [Compound I-160] the figure was greater than 25 µM.

Molecule `O=C(O)C1CN(c2nc(-c3ccc(Oc4ccccc4)cc3)c(-c3cccc4[nH]ccc34)s2)C1` [Compound I-161] yielded a half-inhibitory concentration (IC50) of 5 to 25 µM. Turning to `CC1(C(=O)O)CN(c2nc(-c3ccc(Oc4ccccc4)cc3)cs2)C1` [Compound I-162], the IC50 is greater than 25 µM. The molecule `CC1(C(=O)O)CN(c2nc(-c3ccc(Oc4ccccc4)cc3)c(-c3ccccc3)s2)C1` [Compound I-163] displayed an IC50 of 5 to 25 µM.

Source of the values: patent US12030875B2, “EIF4E inhibitors and uses thereof” (PIC Therapeutics, Inc., priority 2018, dated 2024).
